Each structure is given as a SMILES string. pEC50: −log10 of the molar value. Bounds are passed on as bounds.

The text below walks through data of patent publication US20090215822A1, “Substituted Oxadiazole Derivatives as Positive Allosteric Modulators of Metabotropic Glutamate Receptors” (NIKEM RESEARCH SRL, priority 2005, published 2009).

The target of one series is T1, rat mGluR5 receptor (Rattus norvegicus, UniProt P31424).
T1 construct: expressed in transfected cells
The series can be described thus: mGluR5 assay on HEK-expressing rat mGluR5 (fluorescent cell based Ca2+ mobilization assay). As to conditions: for pEC50: HEK-293 cells stably expressing rat mGluR5, no co-addition of glutamate, mean of at least three independent experiments in duplicate, read-out: Ca++ Flux (mean EC50). The method, then:
Positive functional expression of HEK-293 cells stably expressing rat mGluR5 receptor was determined by measuring intracellular Ca^2+ changes using a Fluorometric Imaging Plate Reader (FLIPR, Molecular Devices, Sunnyvale, Calif.) in response to glutamate or selective known mGluR5 agonists and antagonists. Rat mGluR5 RT-PCR products in HEK-293 cells were sequenced and found 100% identical to rat mGluR5 Genbank reference sequence (NM_017012). HEK-293 cells expressing rmGluR5 were maintained in media containing DMEM, dialyzed Fetal Bovine Serum (10%), Glutamax™ (2 mM), Penicillin (100 units/ml), Streptomycin (100 μg/ml), Geneticin (100 μg/ml) and Hygromycin-B (40 μg/ml) at 37° C./5% CO2.
After one day of incubation, cells were washed with assay buffer containing: 142 mM NaCl, 6 mM KCl, 1 mM Mg2SO4, 1 mM CaCl2, 20 mM HEPES, 1 g/L glucose, 0.125 mM sulfinpyrazone, pH 7.4. After 60 min of loading with 4 uM Fluo-4 (TefLabs, Austin, Tex.), the cells were washed three times with 50 μl of PBS Buffer and resuspended in […] of assay Buffer. The plates were then transferred to a Fluorometric Imaging Plate Reader (FLIPR, Molecular Devices, Sunnyvale, Calif.) for the assessment of intracellular calcium flux. After monitoring the baseline fluorescence for 10 seconds, increasing concentrations of representative compound (from 0.01 to 60 μM) of the present invention diluted in Assay Buffer (15 μl of 4× dilutions) was added to the cell. The final DMSO concentration in the assay was 0.3%. In each experiment, fluorescence was then monitored as a function of time for 3 minutes and the data analyzed using Microsoft Excel and GraphPad Prism. Each data point was also measured two times.
Under these experimental conditions, this HEK-rat mGluR5 cell line is able to directly detect positive allosteric modulators without the need of co-addition of glutamate or mGluR5 agonist.
The concentration-response curves of representative compounds of the present invention were generated using the Prism GraphPad software (Graph Pad Inc, San Diego, USA). The curves were fitted to a four-parameter logistic equation:
(Y=Bottom+(Top-Bottom)/(1+10̂((Log EC50−X)*Hill Slope)
allowing determination of EC50 values.
The Table 1 below represents the mean EC50 obtained from at least three independent experiments of selected molecules performed in duplicate.

In another series the target is T2, mGluR5 (Rattus norvegicus, UniProt P31424).
T2 construct: positive allosteric modulators of mGluR5 receptors in native preparations; endogenous in cells; host or cells: primary cortical astrocytes from Sprague-Dawley rat embryos (E16-19)
T2 sequence (P31424 21-1203): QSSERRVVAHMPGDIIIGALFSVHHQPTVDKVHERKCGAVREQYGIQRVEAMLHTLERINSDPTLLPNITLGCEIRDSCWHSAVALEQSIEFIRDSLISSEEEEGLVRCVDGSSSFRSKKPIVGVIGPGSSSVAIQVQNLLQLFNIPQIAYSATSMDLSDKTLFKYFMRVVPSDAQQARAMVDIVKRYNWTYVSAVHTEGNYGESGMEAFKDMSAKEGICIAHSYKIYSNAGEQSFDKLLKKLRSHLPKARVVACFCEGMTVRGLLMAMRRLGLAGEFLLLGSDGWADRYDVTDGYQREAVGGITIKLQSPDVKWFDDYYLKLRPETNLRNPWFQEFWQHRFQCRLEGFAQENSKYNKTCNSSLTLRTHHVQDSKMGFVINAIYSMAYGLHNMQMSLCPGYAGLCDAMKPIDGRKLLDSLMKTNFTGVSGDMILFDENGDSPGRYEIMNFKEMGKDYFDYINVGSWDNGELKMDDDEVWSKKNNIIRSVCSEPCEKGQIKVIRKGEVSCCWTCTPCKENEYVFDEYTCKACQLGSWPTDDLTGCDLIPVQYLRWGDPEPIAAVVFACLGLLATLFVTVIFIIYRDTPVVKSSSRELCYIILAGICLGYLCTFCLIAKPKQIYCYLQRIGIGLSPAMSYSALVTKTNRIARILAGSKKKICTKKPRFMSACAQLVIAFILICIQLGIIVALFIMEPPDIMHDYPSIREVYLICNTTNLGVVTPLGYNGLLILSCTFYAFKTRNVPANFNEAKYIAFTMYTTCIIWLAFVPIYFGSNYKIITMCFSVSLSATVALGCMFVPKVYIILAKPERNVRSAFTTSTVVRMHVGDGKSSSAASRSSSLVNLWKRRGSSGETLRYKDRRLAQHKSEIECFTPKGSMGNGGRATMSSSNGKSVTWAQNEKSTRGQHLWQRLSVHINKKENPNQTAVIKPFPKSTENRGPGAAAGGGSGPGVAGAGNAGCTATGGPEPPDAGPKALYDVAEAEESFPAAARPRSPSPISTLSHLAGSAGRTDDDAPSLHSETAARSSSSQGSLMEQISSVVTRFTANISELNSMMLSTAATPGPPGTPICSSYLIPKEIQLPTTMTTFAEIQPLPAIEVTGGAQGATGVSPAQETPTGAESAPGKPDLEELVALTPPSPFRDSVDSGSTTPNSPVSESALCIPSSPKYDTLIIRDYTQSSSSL
As to conditions: Liu et al (2006), Zhang et al (2005); cited from earlier work.

T1 sequence (P31424 21-1171 isoform P31424-2 limits assumed): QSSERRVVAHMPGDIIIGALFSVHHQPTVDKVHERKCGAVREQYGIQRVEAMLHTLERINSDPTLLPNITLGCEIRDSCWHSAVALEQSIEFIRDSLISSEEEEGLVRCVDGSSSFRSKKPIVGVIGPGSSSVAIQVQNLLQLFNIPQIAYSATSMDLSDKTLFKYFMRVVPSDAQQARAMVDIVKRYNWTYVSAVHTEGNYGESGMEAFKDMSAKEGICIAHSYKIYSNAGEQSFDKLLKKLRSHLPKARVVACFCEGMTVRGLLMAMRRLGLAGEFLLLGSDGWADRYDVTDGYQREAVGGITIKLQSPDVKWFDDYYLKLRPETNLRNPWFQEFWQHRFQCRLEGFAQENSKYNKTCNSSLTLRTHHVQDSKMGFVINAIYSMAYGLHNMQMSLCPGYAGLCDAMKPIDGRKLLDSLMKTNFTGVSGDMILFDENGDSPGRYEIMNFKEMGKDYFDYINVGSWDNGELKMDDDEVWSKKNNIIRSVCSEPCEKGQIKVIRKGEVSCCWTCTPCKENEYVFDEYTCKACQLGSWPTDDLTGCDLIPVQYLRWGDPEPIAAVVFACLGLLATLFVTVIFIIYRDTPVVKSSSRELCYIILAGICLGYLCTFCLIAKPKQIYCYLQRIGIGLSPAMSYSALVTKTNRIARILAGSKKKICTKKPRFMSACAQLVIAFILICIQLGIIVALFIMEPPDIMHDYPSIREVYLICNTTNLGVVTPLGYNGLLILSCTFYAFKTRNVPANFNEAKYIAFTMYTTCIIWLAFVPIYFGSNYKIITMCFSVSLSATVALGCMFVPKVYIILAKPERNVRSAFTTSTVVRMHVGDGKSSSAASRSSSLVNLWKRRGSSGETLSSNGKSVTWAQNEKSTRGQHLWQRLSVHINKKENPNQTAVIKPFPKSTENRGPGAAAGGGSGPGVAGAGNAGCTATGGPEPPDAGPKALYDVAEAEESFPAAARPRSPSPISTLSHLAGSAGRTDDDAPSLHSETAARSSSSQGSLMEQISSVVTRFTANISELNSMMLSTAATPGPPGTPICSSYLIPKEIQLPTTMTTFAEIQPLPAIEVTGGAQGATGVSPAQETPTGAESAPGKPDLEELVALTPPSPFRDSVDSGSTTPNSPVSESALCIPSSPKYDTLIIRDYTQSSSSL

Take `Fc1cccc(/C=N/N=C/c2cccc(F)c2)c1` [DFB, reference compound]: the “activation of rat mGluR5 receptors without co-addition of glutamate” value at rat mGluR5 receptor (HEK-rat mGluR5 cell line, no added glutamate or agonist) is recorded as “activating”. In addition, the “activity in rat cortical astrocytes culture in the absence of added glutamate” value at mGluR5 was “inactive”.
`O=C(c1ccc(F)c(F)c1)N1CCCC(c2noc(-c3ccc(F)cc3)n2)C1` (centres unmarked) [Example 10, (3,4-Difluoro-phenyl)-{3-[5-(4-fluoro-phenyl)-[1,2,4]oxadiazol-3-yl]-piperidin-1-yl}-methanone] had a melting point of 149 to 152 °C. Also, the pEC50 at rat mGluR5 receptor was more than 6.00.
With `O=C(c1ccc(F)cc1F)N1CCCC(c2noc(-c3ccccc3)n2)C1` (centres unmarked) [Example 33, (2,4-Difluoro-phenyl)-[3-(5-phenyl-[1,2,4]oxadiazol-3-yl)-piperidin-1-yl]-methanone], the melting point was 116 to 117 °C. Further, at rat mGluR5 receptor, the pEC50 is more than 6.00.
On to `O=C(c1ccc(F)cc1)N1CCCC(c2noc(-c3cscn3)n2)C1` (centres unmarked) [Example 8, (4-Fluoro-phenyl)-[3-(5-thiazol-4-yl-[1,2,4]oxadiazol-3-yl)-piperidin-1-yl]-methanone], for which the melting point came to 128 °C. Moreover, the pEC50 at rat mGluR5 receptor is 5.00 to 6.00.
Compound `O=C(c1ccc(F)cc1)N1CCCC(c2noc(-c3ccncc3)n2)C1` (centres unmarked) [Example 14, (4-Fluoro-phenyl)-[3-(5-pyridin-4-yl-[1,2,4]oxadiazol-3-yl)-piperidin-1-yl]-methanone] returned a melting point of 149 to 151 °C. In addition, the pEC50 at rat mGluR5 receptor was 5.00 to 6.00.
For `O=C(c1ccc(F)nc1)N1CCC[C@H](c2noc(-c3ccc(F)cc3)n2)C1` [Example 36, {(S)-3-[5-(4-Fluoro-phenyl)-[1,2,4]oxadiazol-3-yl]-piperidin-1-yl}-(6-fluoro-pyridin-3-yl)-methanone], in that order: 103 to 104 °C and more than 6.00.
For `O=C(c1ccc(F)c(F)c1)N1CCCC(c2noc(-c3ccc(F)cc3F)n2)C1` (centres unmarked) [Example 17, (3,4-Difluoro-phenyl)-{3-[5-(2,4-difluoro-phenyl)-[1,2,4]oxadiazol-3-yl]-piperidin-1-yl}-methanone] the same measures were 91 °C and more than 6.00.
For `O=C(c1ccc(F)c(F)c1)N1CCCC(c2noc(-c3ccccc3)n2)C1` (centres unmarked) [Example 32, (3,4-Difluoro-phenyl)-[3-(5-phenyl-[1,2,4]oxadiazol-3-yl)-piperidin-1-yl]-methanone], in that order: 116 to 118 °C and more than 6.00.
Compound `O=C(c1ccc(F)cc1F)N1CCCC(c2noc(-c3ccncc3)n2)C1` (centres unmarked) [Example 16, (2,4-Difluoro-phenyl)-[3-(5-pyridin-4-yl-[1,2,4]oxadiazol-3-yl)-piperidin-1-yl]-methanone] yielded a melting point of 137 to 139 °C. Besides, the pEC50 at rat mGluR5 receptor was 5.00 to 6.00.
For `O=C(c1ccc(F)cc1)N1CCC[C@H](c2noc(-c3ccc(F)cn3)n2)C1` [Example 44, (S)-(4-fluorophenyl)-{3-[5-(5-fluoropyridin-2-yl)-[1,2,4]oxadiazol-3-yl]-piperidin-1-yl}-methanone], in that order: 108 to 110 °C and more than 6.00.
For `O=C(c1ccc(F)nc1)N1CCCC(c2noc(-c3ccncc3)n2)C1` (centres unmarked) [Example 21, (6-Fluoro-pyridin-3-yl)-[3-(5-pyridin-4-yl-[1,2,4]oxadiazol-3-yl)-piperidin-1-yl]-methanone], the melting point lay within 132 to 134 °C. For the same compound, the negative logarithm of the EC50 (pEC50) on rat mGluR5 receptor was 5.00 to 6.00.
Regarding `Cc1cc(F)ccc1C(=O)N1CCCC(c2noc(-c3ccc(F)cc3F)n2)C1` (centres unmarked) [Example 31, {3-[5-(2,4-Difluoro-phenyl)-[1,2,4]oxadiazol-3-yl]-piperidin-1-yl}-(4-fluoro-2-methyl-phenyl)-methanone], the melting point was found to be 110 °C. Besides, the pEC50 on rat mGluR5 receptor is 5.00 to 6.00.
`Cc1oncc1C(=O)N1CCC[C@H](c2noc(-c3ccc(F)cc3)n2)C1` [Example 39, {(S)-3-[5-(4-Fluoro-phenyl)-[1,2,4]oxadiazol-3-yl]-piperidin-1-yl}-(5-methyl-isoxazol-4-yl)-methanone] displayed a melting point of 65 °C. Besides, on rat mGluR5 receptor, the negative logarithm of the EC50 (pEC50) is more than 6.00.
In the case of `O=C(c1ccc(F)nc1)N1CCCC(c2noc(-c3cscn3)n2)C1` (centres unmarked) [Example 30, (6-Fluoro-pyridin-3-yl)-[3-(5-thiazol-4-yl-[1,2,4]oxadiazol-3-yl)-piperidin-1-yl]-methanone], the melting point was determined as 90 °C. Moreover, the pEC50 on rat mGluR5 receptor was less than 5.00.
For `Cc1cc(F)ccc1C(=O)N1CCCC(c2noc(-c3ccc(F)cc3)n2)C1` (centres unmarked) [Example 27, (4-Fluoro-2-methyl-phenyl)-{3-[5-(4-fluoro-phenyl)-[1,2,4]oxadiazol-3-yl]-piperidin-1-yl}-methanone] the same measures were 129 to 131 °C and 5.00 to 6.00.
The compound `O=C(c1ccc(F)cc1F)N1CCCC(c2noc(-c3ccc(F)cc3F)n2)C1` (centres unmarked) [Example 19, (2,4-Difluoro-phenyl)-{3-[5-(2,4-difluoro-phenyl)-[1,2,4]oxadiazol-3-yl]-piperidin-1-yl}-methanone] had a melting point of 101 °C. The pEC50 at rat mGluR5 receptor is 5.00 to 6.00.
For `O=C(c1ccc(F)c(F)c1)N1CCC[C@H](c2noc(-c3ccc(F)cc3)n2)C1` [Example 37, (3,4-Difluoro-phenyl)-{(S)-3-[5-(4-fluoro-phenyl)-[1,2,4]oxadiazol-3-yl]-piperidin-1-yl}-methanone] the same measures were 120 °C and more than 6.00.
As for `O=C(c1ccc(F)cn1)N1CCC[C@H](c2noc(-c3ccc(F)cc3)n2)C1` [Example 42, {(S)-3-[5-(4-Fluoro-phenyl)-[1,2,4]oxadiazol-3-yl]-piperidin-1-yl}-(5-fluoro-pyridin-2-yl)-methanone], the melting point lay within 93 to 95 °C. In addition, at rat mGluR5 receptor, the negative-log EC50 (pEC50) is 5.00 to 6.00.
For `O=C(c1ccc(F)cc1F)N1CCCC(c2noc(-c3ccc(F)cc3)n2)C1` (centres unmarked) [Example 18, (2,4-Difluoro-phenyl)-{3-[5-(4-fluoro-phenyl)-[1,2,4]oxadiazol-3-yl]-piperidin-1-yl}-methanone] the same measures were 137 to 139 °C and more than 6.00.
For `O=C(c1ccc(F)cc1)N1CCCC(c2noc(-c3ccc(F)cc3F)n2)C1` (centres unmarked) [Example 13, {3-[5-(2,4-Difluoro-phenyl)-[1,2,4]oxadiazol-3-yl]-piperidin-1-yl}-(4-fluoro-phenyl)-methanone], in that order: 88 °C and more than 6.00.
For `O=C(c1ccc(F)cc1)N1CCCC(c2noc(-c3ccccn3)n2)C1` (centres unmarked) [Example 11, (4-Fluoro-phenyl)-[3-(5-pyridin-2-yl-[1,2,4]oxadiazol-3-yl)-piperidin-1-yl]-methanone] the same measures were 126 to 129 °C and 5.00 to 6.00.
`O=C(c1ccc(F)cc1)N1CCC[C@@H](c2noc(-c3ccc(F)cc3)n2)C1` [Example 2, (4-Fluoro-phenyl)-{(R)-3-[5-(4-fluoro-phenyl)-[1,2,4]oxadiazol-3-yl]-piperidin-1-yl}-methanone]: the melting point fell in the range of 120 to 123 °C. Further, the negative-log EC50 (pEC50) on rat mGluR5 receptor was 5.00 to 6.00.
As for `O=C(c1ccc(F)nc1)N1CCCC(c2noc(-c3ccc(F)cc3)n2)C1` (centres unmarked) [Example 9, {3-[5-(4-Fluoro-phenyl)-[1,2,4]oxadiazol-3-yl]-piperidin-1-yl}-(6-fluoro-pyridin-3-yl)-methanone], the melting point lay within 131 to 134 °C. In addition, the negative-log EC50 (pEC50) at rat mGluR5 receptor was more than 6.00.
The compound `Cc1noc(C)c1C(=O)N1CCC[C@H](c2noc(-c3ccc(F)cc3)n2)C1` [Example 38, (3,5-Dimethyl-isoxazol-4-yl)-{(S)-3-[5-(4-fluoro-phenyl)-[1,2,4]oxadiazol-3-yl]-piperidin-1-yl}-methanone] yielded a melting point of 85 °C. At rat mGluR5 receptor, the negative logarithm of the EC50 (pEC50) is more than 6.00.
For `O=C(c1ccc(F)nc1)N1CCCC(c2noc(-c3ccccn3)n2)C1` (centres unmarked) [Example 12, (6-Fluoro-pyridin-3-yl)-[3-(5-pyridin-2-yl-[1,2,4]oxadiazol-3-yl)-piperidin-1-yl]-methanone], in that order: 124 to 126 °C and 5.00 to 6.00.

In general, melting point refers to the temperature, or range, at which the solid turns liquid. For orientation: pEC50 means the EC50 on a negative log10 scale, so that one unit is a factor of ten.
